# Where “and” joins values, the source holds several entries; their conditions need not be identical. Equal values may be shown once.
# Experiments:
# Rattus norvegicus = assay: Anti-inflammatory activity against egg white-induced paw edema in rat model assessed as detumescence rate measured after 6 hrs relative to control; assay type: functional
# HCT-116 = assay: Antiproliferative activity against human HCT-116 cells assessed as cell growth inhibition measured after 48 hrs by MTT assay; assay type: functional, cell-based; details: HCT-116, 48 h
# HK-2 = assay: Antiproliferative activity against human HK-2 cells; assay type: functional, cell-based
# [1] = Antimigratory activity against human LX2 cells assessed as inhibition rate relative to control; assay type: functional, LX-2
# [2] = Inhibition of mesenchymal transformation in human A549 cells assessed as inhibition rate relative to control; assay type: functional
# [3] = Antimigratory activity against human Cardiac fibroblast cells assessed as inhibition rate relative to control; assay type: functional
# MDA-MB-231 = assay: Antitumor activity against human MDA-MB-231 cells assessed as tumor growth inhibition; assay type: functional, cell-based
# BT-549 = assay: Antiproliferative activity against human BT-549 cells; assay type: functional, cell-based
# MDA-MB-361 = assay: Antitumor activity against human MDA-MB-361 cells assessed as tumor growth inhibition; assay type: functional, cell-based
# T47D = assay: Antiproliferative activity against human T47D cells; assay type: functional, cell-based
# MCF7 = assay: Cytotoxicity against human MCF7 cells; assay type: functional, cell-based
# K562 = assay: Antiproliferative activity against human K562 cells assessed as reduction in cell viability by MTT assay; assay type: functional, cell-based
# KBM5 = assay: Antiproliferative activity against human KBM5 cells assessed as reduction in cell viability by MTT assay; assay type: functional, cell-based
# Staphylococcus aureus = assay: Antibacterial activity against Staphylococcus aureus MTCC 96 assessed as bacterial growth inhibition by broth micro-dilution assay; assay type: functional
# Chikungunya virus = assay: Antiviral activity against Chikungunya virus; assay type: functional, organism-based
# [4] = Antiviral activity against DENV2 infected in human HepG2 cells incubated for 1 hrs by plaque assay; assay type: functional, cell-based, dengue virus type 2; details: Dengue virus, HepG2, 1 h
# [5] = Antiviral activity against DENV2 infected in human HeLa cells incubated for 1 hrs by plaque assay; assay type: functional, cell-based, dengue virus type 2; details: Dengue virus
# enterovirus D68 = assay: Antiviral activity against Enterovirus D68 infected in human RD cells assessed as inhibition of viral replication measured after 48 hrs by qRT-PCR analysis; assay type: functional, organism-based; details: Enterovirus D
# [6] = Antiviral activity against HIV infected in human MT2 cells; assay type: functional, cell-based; details: Human immunodeficiency virus 1, MT2
# [7] = system: Human immunodeficiency virus; assay: Antiviral activity against HIV infected in human C8166 cells; assay type: functional, organism-based
structure (smiles),measurement,setting,value
C=C1CC[C@@H]2[C@](C)(CO)[C@H](O)CC[C@@]2(C)[C@@H]1C/C=C1/C(=O)OC[C@H]1O [ANDROGRAPHOLIDE],inhibition (INH),Rattus norvegicus,74.42%
same,IC50,HCT-116,31.8 µM
same,IC50,HK-2,30.6 µM
same,inhibition (INH),[1],15%
same,inhibition (INH),[2],55%
same,inhibition (INH),[3],35%
same,IC50,MDA-MB-231,20.3 µM
same,IC50,BT-549,23.2 µM
same,IC50,MDA-MB-361,31.5 µM
same,IC50,T47D,32.4 µM
same,IC50,MCF7,35.1 µM
same,IC50,K562,23.7 µM
same,IC50,KBM5,8.5 µM
same,MIC,Staphylococcus aureus,100 µg/mL
same,IC50,Chikungunya virus,0.6 µM
same,IC50,[4],21 µM
same,IC50,[5],23 µM
same,IC50,enterovirus D68,3.45 µM
same,IC50,[6],140 µM
same,IC50,[7],7.9 µM and 2.32 µM

# — ChEMBL document CHEMBL5236551, “Andrographolide and its derivatives: Current achievements and future perspectives” (Eur J Med Chem, 2021)
